The results in this text go back to patent US10617750B2, “Partner of SLD five 1 (PSF1)-derived peptide” (Vasculead Inc., priority 2012, dated 2020).

In data set [1] the test system is T2 cells. Description: Human CTL cytotoxic assay. It is filed as cell-based. As for the experimental part: Specifically, assay conditions were set with reference to a method described in a known report (New CFSE-based assay to determine susceptibility to lysis by cytotoxic T cells of leukemic precursor cells within a heterogeneous target cell population. Jedema I. et al. Blood 2004; 103:2677-2682).
As target cells for use in the cytotoxic assay, 1 μM of CellTracker™ Green CMFDA (5-chloromethylfluorescein diacetate) (Invitrogen Corp., Carlsbad, Calif.) was added to T2 cells, and these cells were allowed to react with each other at 37° C. for 15 minutes. The T2 cells were labeled with CMFDA, which is a fluorescent marker, washed with AIM-V, supplemented with assay peptides (20 μg/ml), and incubated for one night. As target cells of a negative control, T2 cells only labeled with a fluorescent marker were used (without peptide addition). The cells were washed with an AIM-V culture medium including antibiotic and serum to have a concentration of 5×10^4 cells/ml.
The cells were prepared to have concentrations of 50, 15, 5×10^4 cells/ml after washing with AIM-V. The preparation was performed with an AIM-V culture medium including antibiotic and serum.
Target cells (T) supplemented with peptides used in CTL induction or target cells (T) of a negative control supplemented with no peptides were mixed with effector cells (E) at a cell ratio (E/T ratio) of 10:1, 3:1, and 1:1, and cocultured for one night. Immediately before measurement with a MACS Quant (Miltenyi Biotec, San Diego, Calif.) or a FACS Aria, 0.1 μg/ml of DAPI was added in order to distinguish living cells from dead cells by means of staining. In an analysis, the proportion of DAPI-negative cells (living cells) in target cells labeled with CMFDA was obtained, and the survival rate of target cells was calculated using incubation conditions (only for target cells) where coculture with effector cells was not performed as 100%.

In data set [2] the test system is peptide specific human CTL. Description: Human CTL induction assay (IFN-γ ELISPOT). It is filed as cell-based. Conditions: for Positive donor number: HLA-A0201 healthy volunteers, positive = difference of 50 or more peptide specific spots; for Donor positive percentage: positive donors / donors examined. As for the experimental part:
A human CTL induction assay was conducted under conditions with reference to a known report (Harano et al. Int. J. Cancer 2008; 123:2616-2625).
Heparinized peripheral blood of healthy volunteers having HLA-A0201 was subjected to centrifugation at 3000 rpm for 20 minutes, thereby removing plasma. Cell pellets were supplemented with HBSS(−) (Wako Pure Chemical Industries, Ltd, Richmond, Va.) to which 5 mM of HEPES (SIGMA, Carlsbad, Calif.) had been added, and were suspended, thereby overlaying the suspension over a Ficoll-paque PREMIUM (GE Healthcare, Ltd., Pittsburgh, Pa.). Then, 400 g of the resulting substance was subjected to centrifugation for 40 minutes, and peripheral blood […] cells (PBMCs) separated as an intermediate layer were collected.
PBMCs were supplemented with CD14 microbeads (Miltenyi Biotec K.K.), and caused to react at 4° C. for 15 minutes. The cells were passed through LS columns (Miltenyi Biotec K.K., Tokyo, Japan), and CD14-positive cells were obtained by using QuadroMACS™ Separator (Miltenyi Biotec K.K., Tokyo, Japan). The rest of the cells were collected and washed, and then supplemented with CD8 microbeads (Miltenyi Biotec K.K., Tokyo, Japan) and allowed to react at 4° C. for 15 minutes. Thereafter, a similar process is performed, thereby obtaining CD8-positive cells. The CD14-positive cells were subjected to differentiation induction to monocyte-derived dendritic cells (Mo-DCs), and CD8-positive cells were temporarily frozen for storage.
Since CD8-positive cells were subjected to antigen stimulation twice, peptide-presenting cells were produced twice accordingly. CD14-positive cells were disseminated in two RepCell plates (CellSeed Inc., Tokyo, Japan), and incubated in a 5% CO2 incubator at 37° C. with a culture solution in which 100 ng/ml GM-CSF (R&D Systems, Minneapolis, Minn.) and 10 ng/ml IL-4 (R&D Systems) were added to an AIM-V (Invitrogen Corporation, Carlsbad, Calif.) culture medium including antibiotic and serum.
First production of peptide-presenting cells was started 5-7 days after the start of incubation. To one of the plates, 0.1 KE/ml OK-432 (Chugai Pharmaceutical Co., Ltd., Tokyo, Japan) was added, and on the next day, cells were collected and inoculated in a 96-well U-bottom plate. Then, 20 μg/ml of assay peptide of one type was added to each half area (48 wells) of the plate, and incubated for one day at 37° C. in a 5% CO2 incubator, thereby producing peptide-presenting cells. Second production was performed similarly on the other plate 12-14 days after the start of incubation.
Peptide-presenting cells in a 96-well plate were irradiated with X rays (30 Gy), and the frozen stored CD8-positive cells were added to all the wells, thereby performing first antigen stimulation. As a culture solution, a solution in which 10 ng/ml IL-7 (R&D Systems, Minneapolis, Minn.) was added to an AIM-V culture medium including antibiotic and serum was used. After incubation for seven days, cells included in supernatant were collected and cocultured with peptide-presenting cells (after X-ray irradiation) obtained by the second production, thereby performing second antigen stimulation in the 96-well plate. At this time, 20 U/mL of IL-2 (Shionogi & Co., Ltd., Florham Park, N.J.) was added to the culture solution. After further incubation for seven days, cells in supernatant including CTL were collected and washed with an AIM-V culture medium including antibiotic and serum to have a concentration of approximately 2×10^5 cells/ml per well, thereby obtaining responder cells for an ELISPOT assay.
T2 cells of stimulator cells for use in an ELISPOT assay were produced by incubating the cells for one night in an AIM-V culture medium supplemented with an assay peptide (20 μg/mL). As stimulator cells of a negative control, only T2 cells were used (without peptides). […]

The test system of data set [3] is peptide specific CTL. Description: CTL inducibility of peptides (summary statement). The format is cell-based. The source says: According to the embodiments of the present invention, the phrase “having CTL inducibility” means that the peptide is recognized by a specific CTL. In other word, the peptide has an ability to induce a peptide specific CTL. […] The ability to induce the peptide specific CTL can be examined by, for example, determining whether or not a cytokine such as interferon-γ (IFN-γ) is produced by peptide-stimulated peripheral blood mononuclear cells (PBMCs) in response to antigen presenting cells which are pulsed with said peptide using the ELISA technique or the like. In addition, cytotoxic activity of the induced CTL can be determined by the ^51Cr-release assay and the like. The peptide of the present invention is preferred to have 8 to 14, more preferably 8 to 11 and especially, 9 or 10 amino acid residues in view of good recognition by CTL.
These all three peptides are located in the region from 79 to 100 of PSF1 (FIG. 3). […] (SEQ ID NO.:6) or […] (SEQ ID NO.: 8) or […]

The subject of data set [4] is peptide specific CTL through HLA-A02. The experiment in a line: Mouse CTL induction assay (IFN-γ ELISPOT after peptide immunization). The format is in vivo. Conditions: CB6F1-Tg (HLA-A0201/H2-Kb) mice, 50 μg peptide/mice, spleen cells two weeks after injection; IFN-γ spots minus negative control peptide. The method, then: The mouse CTL inducing activity with peptides was determined by using mouse immune models. Regarding mice, CB6F1-Tg (HLA-A0201/H2-Kb)A0201 was obtained from Taconic Biosciences, Inc. At most five types of peptide solutions dissolved in DMSO were mixed to produce a PBS solution, and the PBS solution was mixed together with the same amount of MONTANIDE ISA 51VG (SEPPIC), thereby producing an emulsion antigen solution. Then, 50 μL of the antigen solution was used for hypodermic injection into each of two sites at both sides of the belly of the mice (50 μg peptide/mice, N=3-4). Two weeks after the injection, spleen was removed, and spleen cells from which erythrocyte had been eliminated with a solution (BD Pharm Lyse™, Becton, Dickinson and Company, La Jolla, Calif.) were collected as responder cells for an ELISPOT assay.
The ELISPOT assay was conducted by detecting IFN-γ produced from responder cells. The procedure thereof conformed to an accompanying document of an assay kit, Mouse IFN-γ ELISpot^PLUS (MABTECH, Cincinnati, Ohio). Preincubation for the IFN-γ production was performed by adding cells to a 96-well plate included in the assay kit. Stimulator cells were inoculated in a duplicate well or a single well of 5×10^4 cell/100 μL/well, and then responder cells were added to 2×10^6 cell/100 μL/well. After one-night coculture, the cells were removed and the well was washed, and then primary antibodies (biotin-antimouse IFN-γ antibodies) included in the assay kit were added. After reaction for two hours at room temperature, the well was washed, supplemented with secondary antibodies (streptavidin-ALP), and subjected to reaction for one hour at room temperature. After having been sufficiently washed, the cells were supplemented with a substrate solution and left for one minute at room temperature. To terminate coloring reaction, the plate was sufficiently washed with running water and was air-dried.
The number of blue spots observed at the well bottom was measured with an ImmunoSpot® S5 Verse Analyzer (Cellular Technology Limited, Shaker Heights, Ohio). Measurement values of unclear spots because of a wide range of coloring were not used. An average value was obtained for the duplicate well, and the difference from the negative control was calculated in order to obtain the number of spots specific to peptides. The average value and the SD value were calculated by using values for individual mice, and the case having a positive number of differences between the average value and the SD value was determined as positive.

No end group written: not given here.

Take ALRWEYGSV: in data set [1], the cytotoxic activity result is listed as “particularly high”.
Turning to “ALRWEYGSVL [PSF1-derived peptide, initiating amino acid no; 89]”, the “Survival rate of target cells pulsed with peptide vs not pulsed” value in data set [1] (CTL line specific to the peptide cocultured with T2 cells at E:T 1:1, 3:1, 10:1, FIG. 2) is given as “decreased to a degree greater than target cells not pulsed with peptides”. In data set [2], the Positive donor number was 2 and the Donor positive percentage turned out to be 100%. For the same sequence, the CTL inducibility result in data set [3] is listed as “high”.
For the sequence “ALYEQNQDSV [PSF1-derived peptide, initiating amino acid no; 38]”, the “Specific spot number (Ave ± SD)” value in data set [4] was 30 ± 15.
For the sequence “AYLYDRLLRI [PSF1-derived peptide, initiating amino acid no; 78]”, in data set [4], the “Specific spot number (Ave ± SD)” value is given as 23 ± 21. Further, in data set [3], the CTL inducibility entry is given as “high”.
“CLKDYGEFEV [PSF1-derived peptide, initiating amino acid no; 152]”: the “Specific spot number (Ave ± SD)” value in data set [4] stood at 53 ± 28.
Consider “EMKALYEQN [PSF1-derived peptide, initiating amino acid number 35]”, for which, in data set [2], the Positive donor number came to 1 and the Donor positive percentage is 13%. The “Specific spot number (Ave ± SD)” value in data set [4] was determined as 6 ± 8.
In the case of “FLPRWKCEQL [PSF1-derived peptide, initiating amino acid no; 176]”, in data set [4], the “Specific spot number (Ave ± SD)” value is 31 ± 24.
Regarding “GDEGLDITQDMKP [PSF1-derived peptide, initiating amino acid number 130]”, in data set [2], the Positive donor number came out at 0 and the Donor positive percentage is 0%. For the same sequence, in data set [4], the “Specific spot number (Ave ± SD)” value is reported as 1 ± 2.
Regarding “KAMELIREL [PSF1-derived peptide, initiating amino acid no]”, the “Specific spot number (Ave ± SD)” value in data set [4] is reported as 22 ± 13.
The same measure, in the same setting: the result for LIRNRRCTV reads 7 ± 9.
In data set [2], “LPAFNEDGLRQV [PSF1-derived peptide, initiating amino acid number 21]” yielded a Positive donor number of 0 and a Donor positive percentage of 0%. Also, the “Specific spot number (Ave ± SD)” value in data set [4] is 3 ± 8.
Turning to “QVLEEMKAL [PSF1-derived peptide, initiating amino acid no; 31]”, the “Specific spot number (Ave ± SD)” value in data set [4] worked out at 7 ± 7.
Turning to “RALRWEYGSV [PSF1-derived peptide, initiating amino acid no; 88]”, in data set [2], the Positive donor number was found to be 3 and the Donor positive percentage stood at 60%. Further, the CTL inducibility result in data set [3] is listed as “high”.
Take RALRWEYGSVLPN: the cytotoxic activity entry in data set [1] is “particularly high”.
“SLATYMRSL [PSF1-derived peptide, initiating amino acid no; 120]”: the “Specific spot number (Ave ± SD)” value in data set [4] is on record as 70 ± 79.
For “SLLRNRRCTV [PSF1-derived peptide, initiating amino acid no; 68]”, the “Specific spot number (Ave ± SD)” value in data set [4] stood at 1 ± 2.
Consider “SLYIEVRCL [PSF1-derived peptide, initiating amino acid no; 145]”, for which, in data set [2], the Positive donor number was found to be 2 and the Donor positive percentage came to 100%. Besides, in data set [4], the “Specific spot number (Ave ± SD)” value was found to be 43 ± 24.
With “VLPNALRFHM [PSF1-derived peptide, initiating amino acid no; 97]”, the “Specific spot number (Ave ± SD)” value in data set [4] was found to be 127 ± 41.
With YLYDRLLRI, the cytotoxic activity result in data set [1] is listed as “particularly high”.
With “YLYDRLLRIR [PSF1-derived peptide, initiating amino acid no; 79]”, the “Specific spot number (Ave ± SD)” value in data set [4] came to 165 ± 17. For the same sequence, the CTL inducibility entry in data set [3] was “high”.
